According to ChEMBL document CHEMBL1201862, “PubChem BioAssay data set” (2004):
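48-hour exposure; five concentrations; linearly interpolated endpoints. GI50 = concentration required for 50% inhibition of growth.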 Calls of active or inactive are those of the source. Rule as the data show it: active = GI50 up to about 1.1 µM and inactive = higher.

Legend:
Test in all cases: NCI anticancer screen, dose series, 48 h
ACHN = test system: ACHN
CAKI-1 = test system: CAKI-1
COLO 205 = test system: COLO 205
K562 = test system: K562
MOLT-4 = test system: MOLT-4
Malme-3M = test system: Malme-3M
OVCAR-5 = test system: OVCAR-5
OVCAR-8 = test system: OVCAR-8
RXF 393 = test system: RXF 393
SF-268 = test system: SF-268
SF-539 = test system: SF-539
SNB-75 = test system: SNB-75
TK-10 = test system: TK-10
UACC-257 = test system: UACC-257
UACC-62 = test system: UACC-62
A549 = test system: A549
HOP-92 = test system: HOP-92
SK-MEL-5 = test system: SK-MEL-5
HCC 2998 = test system: HCC 2998

SMILES	GI50 (ACHN)	GI50 (CAKI-1)	GI50 (COLO 205)	GI50 (K562)	GI50 (MOLT-4)	GI50 (Malme-3M)	GI50 (OVCAR-5)	GI50 (OVCAR-8)	GI50 (RXF 393)	GI50 (SF-268)	GI50 (SF-539)	GI50 (SNB-75)	GI50 (TK-10)	GI50 (UACC-257)	GI50 (UACC-62)	GI50 (A549)	GI50 (HOP-92)	GI50 (SK-MEL-5)	GI50 (HCC 2998)
O=C(O)c1ccc2[nH]c(=O)oc2c1	> 100 µM (inactive)	> 100 µM (inactive)	> 100 µM (inactive)	> 100 µM (inactive)	> 100 µM (inactive)	> 100 µM (inactive)	> 100 µM (inactive)	> 100 µM (inactive)	> 100 µM (inactive)	> 100 µM (inactive)	> 100 µM (inactive)	> 100 µM (inactive)	> 100 µM (inactive)	> 100 µM (inactive)	> 100 µM (inactive)				
COP(=O)(OC)C(O)/C=C/c1ccco1 (configuration not stated)	> 100 µM (inactive)	> 100 µM (inactive)	> 100 µM (inactive)	> 100 µM (inactive)	> 100 µM (inactive)	> 100 µM (inactive)	> 100 µM (inactive)	> 100 µM (inactive)	> 100 µM (inactive)	> 100 µM (inactive)				> 100 µM (inactive)	> 100 µM (inactive)	> 100 µM (inactive)	> 100 µM (inactive)	> 100 µM (inactive)	
O=C(c1ccccc1)c1ccc2c(c1)NC(=O)c1ccccc1SSc1ccccc1C(=O)N2	> 100 µM (inactive)	> 100 µM (inactive)	> 100 µM (inactive)	> 100 µM (inactive)	> 100 µM (inactive)	> 100 µM (inactive)	> 100 µM (inactive)	> 100 µM (inactive)	> 100 µM (inactive)	> 100 µM (inactive)	> 100 µM (inactive)		> 100 µM (inactive)	> 100 µM (inactive)	> 100 µM (inactive)	> 100 µM (inactive)	> 100 µM (inactive)	> 100 µM (inactive)	
CCOC(=O)N1CCN(c2c(C)nc(C)nc2O)CC1	> 100 µM (inactive)	> 100 µM (inactive)	> 100 µM (inactive)	> 100 µM (inactive)	> 100 µM (inactive)	> 100 µM (inactive)		> 100 µM (inactive)	> 100 µM (inactive)	> 100 µM (inactive)	> 100 µM (inactive)		> 100 µM (inactive)	> 100 µM (inactive)	> 100 µM (inactive)	> 100 µM (inactive)	> 100 µM (inactive)	> 100 µM (inactive)	> 100 µM (inactive)
Cc1cc(=O)oc2cc(OCc3c(F)cccc3Cl)ccc12	79.8 µM (inactive)	17.2 µM (inactive)				0.728 µM (active)	> 100 µM (inactive)	> 100 µM (inactive)	7.23 µM (inactive)	21.4 µM (inactive)	11.9 µM (inactive)	9.02 µM (inactive)	> 100 µM (inactive)	78.5 µM (inactive)	1.12 µM (inactive)	> 100 µM (inactive)	10.5 µM (inactive)	3.66 µM (inactive)	
NC(C(F)(F)F)(C(F)(F)F)P(=O)(Cc1ccccc1)Cc1ccccc1	> 100 µM (inactive)	> 100 µM (inactive)	> 100 µM (inactive)	> 100 µM (inactive)	> 100 µM (inactive)	> 100 µM (inactive)	> 100 µM (inactive)	> 100 µM (inactive)	28.9 µM (inactive)	73.8 µM (inactive)	42.8 µM (inactive)	55.6 µM (inactive)	> 100 µM (inactive)	> 100 µM (inactive)	> 100 µM (inactive)	> 100 µM (inactive)		> 100 µM (inactive)	> 100 µM (inactive)
Nc1ccn(C2OC(C(OC3OC(CO)C(O)C(N)C3O)C(O)C(O)C(O)C(O)CO)C(N)C(O)C2O)c(=O)n1 (configuration not stated)	21.7 µM (inactive)	61 µM (inactive)	> 100 µM (inactive)		> 100 µM (inactive)		15 µM (inactive)	81.5 µM (inactive)		11 µM (inactive)	11.3 µM (inactive)		85.9 µM (inactive)	> 100 µM (inactive)	71 µM (inactive)	> 100 µM (inactive)	3.78 µM (inactive)	> 100 µM (inactive)	5.26 µM (inactive)
O=[N+]([O-])c1cccc(/C=N/N=c2\ccc3ccccc3[nH]2)c1O	0.478 µM (active)	0.665 µM (active)	2.21 µM (inactive)	1.35 µM (inactive)	0.83 µM (active)	1.88 µM (inactive)	3.08 µM (inactive)	2.21 µM (inactive)	2.07 µM (inactive)	1.14 µM (inactive)	1.84 µM (inactive)		2.51 µM (inactive)	2.28 µM (inactive)	1.43 µM (inactive)	2.4 µM (inactive)	7.5 µM (inactive)	0.984 µM (active)	
O=C1O[B-](c2ccccc2)(c2ccccc2)[NH+]2CCCC12 (configuration not stated)	75.7 µM (inactive)	47.4 µM (inactive)	31.6 µM (inactive)	67.6 µM (inactive)	> 100 µM (inactive)	51.1 µM (inactive)	> 100 µM (inactive)	74 µM (inactive)	43.5 µM (inactive)	> 100 µM (inactive)	55.6 µM (inactive)		44.4 µM (inactive)	64.9 µM (inactive)	> 100 µM (inactive)	> 100 µM (inactive)	16.7 µM (inactive)	33 µM (inactive)	
COP(=O)(OC)[C@@](O)(c1ccccc1)[C@@H](O)[C@@H](O)c1ccccc1	> 100 µM (inactive)	> 100 µM (inactive)	> 100 µM (inactive)			> 100 µM (inactive)	> 100 µM (inactive)	> 100 µM (inactive)	> 100 µM (inactive)	> 100 µM (inactive)	33.7 µM (inactive)	> 100 µM (inactive)	> 100 µM (inactive)	> 100 µM (inactive)	> 100 µM (inactive)	> 100 µM (inactive)	> 100 µM (inactive)	> 100 µM (inactive)	
CSc1nc(=S)[nH]c2[nH]nc(C)c12		> 100 µM (inactive)	> 100 µM (inactive)	> 100 µM (inactive)	> 100 µM (inactive)	> 100 µM (inactive)	> 100 µM (inactive)	> 100 µM (inactive)	> 100 µM (inactive)	> 100 µM (inactive)	> 100 µM (inactive)	> 100 µM (inactive)	> 100 µM (inactive)	> 100 µM (inactive)	> 100 µM (inactive)	> 100 µM (inactive)		> 100 µM (inactive)	> 100 µM (inactive)
CC(C)CNC(=O)O	> 100 µM (inactive)	> 100 µM (inactive)	> 100 µM (inactive)	> 100 µM (inactive)	> 100 µM (inactive)	> 100 µM (inactive)	> 100 µM (inactive)	> 100 µM (inactive)	> 100 µM (inactive)	> 100 µM (inactive)	> 100 µM (inactive)	> 100 µM (inactive)	> 100 µM (inactive)	> 100 µM (inactive)	> 100 µM (inactive)	> 100 µM (inactive)	> 100 µM (inactive)	> 100 µM (inactive)	
COc1ccccc1-c1nc[nH]c1-c1ccccc1OC	35.9 µM (inactive)	31 µM (inactive)		19.9 µM (inactive)	29.2 µM (inactive)	11.2 µM (inactive)	37.9 µM (inactive)		24.5 µM (inactive)	14.4 µM (inactive)		14.6 µM (inactive)	22.5 µM (inactive)	25.3 µM (inactive)		22.6 µM (inactive)	17.3 µM (inactive)		
CC[C@H](C)C1=C(OC(C)=O)[N@+]2([O-])Oc3ccc(-c4c(O)c(O)c(-c5ccc(OC(C)=O)cc5)c(OC(C)=O)c4OC(C)=O)cc3O[C@]2([C@@H](C)CC)C(=O)N1O	14.9 µM (inactive)	26.3 µM (inactive)	19.8 µM (inactive)	11.7 µM (inactive)	13.2 µM (inactive)	16.6 µM (inactive)	22.9 µM (inactive)	18.4 µM (inactive)	29.6 µM (inactive)	18.8 µM (inactive)	14.2 µM (inactive)		20.4 µM (inactive)	> 50 µM (inactive)	14.7 µM (inactive)	18.8 µM (inactive)	3.84 µM (inactive)	16.4 µM (inactive)	
O=C(/N=N/c1ccc(Cl)cc1Cl)NNc1ccc(Cl)cc1Cl	16.6 µM (inactive)	19.6 µM (inactive)		20.8 µM (inactive)	16.3 µM (inactive)	18.6 µM (inactive)	19.3 µM (inactive)	17.7 µM (inactive)		30.1 µM (inactive)		31.6 µM (inactive)	24.3 µM (inactive)	19.6 µM (inactive)	13.9 µM (inactive)	18.2 µM (inactive)		14.9 µM (inactive)	11.4 µM (inactive)
COc1cccc(/N=N/C(=N/NC(=O)c2ccc(C)cc2)c2ccc(N(CCC#N)CCC#N)cc2OC)c1	> 100 µM (inactive)	> 100 µM (inactive)	> 100 µM (inactive)	> 100 µM (inactive)	> 100 µM (inactive)	> 100 µM (inactive)	24.4 µM (inactive)	> 100 µM (inactive)	> 100 µM (inactive)	> 100 µM (inactive)			8.05 µM (inactive)	7.14 µM (inactive)	> 100 µM (inactive)	> 100 µM (inactive)	> 100 µM (inactive)	> 100 µM (inactive)	8.28 µM (inactive)
N#CS/C(Cl)=C(/C(Cl)=C(Cl)Cl)[N+](=O)[O-]	31.3 µM (inactive)	35.4 µM (inactive)	30.5 µM (inactive)	40.7 µM (inactive)	36.3 µM (inactive)	20.7 µM (inactive)	> 100 µM (inactive)	34.4 µM (inactive)	47.3 µM (inactive)	38 µM (inactive)	32.9 µM (inactive)	32.3 µM (inactive)	> 100 µM (inactive)	36.6 µM (inactive)	47.2 µM (inactive)	> 100 µM (inactive)		49.7 µM (inactive)	39.8 µM (inactive)
